The AUC(0-inf) is total exposure, with the tail of the curve extrapolated. Read a high AUC(0-inf) as high exposure. Broadly, the AUC is concentration integrated over time. The term clearance denotes the rate of elimination divided by the concentration.

In one data set the target is T1, human Cat K (Homo sapiens, UniProt P43235).
T1 sequence (P43235 115-329): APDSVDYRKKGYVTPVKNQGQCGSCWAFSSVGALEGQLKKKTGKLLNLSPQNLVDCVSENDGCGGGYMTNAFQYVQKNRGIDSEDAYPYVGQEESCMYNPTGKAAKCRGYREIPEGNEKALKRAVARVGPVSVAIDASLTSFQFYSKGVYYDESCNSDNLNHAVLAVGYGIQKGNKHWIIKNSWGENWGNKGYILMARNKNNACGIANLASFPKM
Conditions: human Cat K vs other human cathepsins; cited from earlier work.

Data set [1] in a line: Rhesus IV Pharmacokinetics. The data set is classed as in vivo, rhesus monkeys. Particulars: for % AUC Extrap. / AUC(0-inf) / C0 / AUC / clearance / Vd / half-life: male rhesus monkeys; for concentration at 0.5 h: 0.50 hours; for AUC: read-out: AUC(0-x); for clearance: read-out: Cl (plasma clearance); for Vd: read-out: Vdss; for half-life: read-out: t½ (converted). The procedure: The study was conducted in male rhesus monkeys (n=4) via the intravenous route using a deuteriated (D6-Odanacatib, or D6-ODN) and non-deuteriated (D0-Odanacatib, or D0-ODN) forms of odanacatib. The dosing solution was prepared in DMSO at a concentration of 7.5 mg/mL and the dose volume was 0.1 mL/kg. Each monkey was administered a 0.75 mg/kg dose each of D6-ODN and D0-ODN as a mixture. Animals were fasted overnight prior to dosing. The dose was administered via the saphenous vein. […] Plasma was stored at −70° C. until analysis.
The lower limit of quantitation was 0.48 nM.
Pharmacokinetic parameters were obtained using non-compartmental methods (Watson®). The plasma clearance (CLP) was calculated as the IV dose divided by the area under the plasma concentration versus time curve (AUC0-∞). AUC was determined using logarithmic trapezoidal interpolation.

The conditions of data set [2]: rhesus monkey, in vivo, po, 2.5 mg/kg.
Method: The pharmacokinetic evaluation was carried out following oral administration to monkeys of the following ODN forms and formulations: D6-ODN spray-dried formulation (A), D6-ODN conventional formulation (B), D0-ODN spray-dried formulation (C) and D0-ODN conventional formulation (D).
The deuterated analog of odanacatib (D6-ODN) as well as ODN (D0-ODN) were prepared either as spray-dried or conventional (crystalline) formulations for pharmacokinetic study in monkeys. The spray-dried form was suspended in water, while the crystalline drug was dissolved in Imwitor:Tween for oral administration to monkeys. Spray-dried D6-ODN (A), crystalline D6-ODN (B), spray-dried D0-ODN (C) and crystalline D0-ODN (D) were dosed to monkeys (n=4) in a cross-over fashion. Each monkey was administered a ˜2.5 mg/kg dose each of forms B and D as a mixture in period one, and forms C and A were then dosed after a washout period. […]
The concentrations of D6-ODN and D0-ODN in plasma were determined by LC-MS/MS in the positive ion mode using the Turbo Ion Spray interface. […] Quantification was based on selected reaction monitoring of the following precursor/product ion pairs: m/z 526.3→313.0 (D0-ODN); m/z 532.2→313.2 (D6-ODN); m/z 538.3→325.2 (^13C12-ODN). The lower limit of quantitation was 1.9 nM. […]
The mark [3] stands for this setting: rhesus monkey, plasma, male rhesus monkeys n=4, 0.75 mg/kg IV.
The mark [4] stands for this setting: rhesus monkey, plasma, 0.75 mg/kg IV.

A value given as a limit tells only on which side of the number the result lay.

For `CC(C)(F)C[C@H](N[C@@H](c1ccc(-c2ccc(S(C)(=O)=O)cc2)cc1)C(F)(F)F)C(=O)NC1(C#N)CC1` [Example D0-ODN, N^1-(1-cyanocyclopropyl)-4-fluoro-N^2-{(1S)-2,2,2-trifluoro-1-[4′-(methylsulfonyl)-1,1′-biphenyl-4-yl]ethyl}-L-leucinamide, reference compound], the “selectivity against all other known human cathepsins” value on human Cat K is listed as at least 300 fold. For the same compound, in data set [1] (0.75 mg/kg IV), the “% AUC Extrap.” value came out at 0.25%. In data set [1] (setting [3]), this compound registered a concentration at 0.08 h of 1020 nM, a concentration at 0.25 h of 947 nM, a concentration at 0.5 h of 872 nM and a concentration at 1 h of 854 nM. Moreover, in data set [1] (setting [3]), the concentration at 4 h came to 462 nM, the concentration at 8 h came out at 250 nM, the concentration at 12 h came out at 130 nM and the concentration at 24 h came to 14.5 nM. In addition, in data set [1] (setting [3]), the concentration at 30 h is 6.22 nM and the concentration at 48 h stood at 1.22 nM. Further, in data set [1] (setting [4]), the AUC(0-inf) was 5.73 µM·h, the C0 was determined as 1080 nM, the AUC came out at 5.71 µM·h and the clearance came to 4.6 mL/min/kg. Besides, in data set [1] (setting [4]), the Vd turned out to be 1.9 L/kg and the half-life was 3.7 h.
As to `[2H]C([2H])([2H])C(F)(C[C@H](N[C@@H](c1ccc(-c2ccc(S(C)(=O)=O)cc2)cc1)C(F)(F)F)C(=O)NC1(C#N)CC1)C([2H])([2H])[2H]` [Example D6-ODN, (2S)—N-(1-cyanocyclopropyl)-5,5,5-trideuterio-4-fluoro-4-(trideuteriomethyl)-2-[[(1S)-2,2,2-trifluoro-1-[4-(4-methylsulfonylphenyl)phenyl]ethyl]amino]pentanamide], the “increase in plasma elimination half-life of ODN by deuterium substitution” value in data set [2] is recorded as “about 2.5 fold”. Moreover, in data set [1] (0.75 mg/kg IV), the “% AUC Extrap.” value stood at 1.7%. Further, in data set [1] (setting [3]), the concentration at 0.08 h came out at 894 nM, the concentration at 0.25 h amounted to 839 nM, the concentration at 0.5 h was determined as 793 nM and the concentration at 1 h was 831 nM. In data set [1] (setting [3]), this compound had a concentration at 4 h of 633 nM, a concentration at 8 h of 633 nM, a concentration at 12 h of 515 nM and a concentration at 24 h of 273 nM. In data set [1] (setting [3]), the concentration at 30 h was determined as 208 nM and the concentration at 48 h turned out to be 70.7 nM. In addition, the concentration at 72 h in data set [1] (rhesus monkey, plasma, male rhesus monkeys n=4, 0.75 mg/kg IV, 72.00 hours) came out at 28.4 nM. The concentration at 96 h in data set [1] (rhesus monkey, plasma, male rhesus monkeys n=4, 0.75 mg/kg IV, 96.00 hours) worked out at 13.8 nM. Also, in data set [1] (setting [4]), the AUC(0-inf) came out at 18 µM·h, the C0 turned out to be 933 nM, the area under the curve (AUC) is 17.7 µM·h and the clearance stood at 1.4 mL/min/kg. In data set [1] (setting [4]), the Vd came out at 1.7 L/kg and the half-life was 16 h. In data set [1] (rhesus monkeys, 0.75 mg/kg IV), the “higher exposure compared to D0-ODN” value is reported as 3 fold, the “longer half-life compared to D0-ODN” value was 4 fold and the “lower clearance compared to D0-ODN” value came to 3 fold.

The values are drawn from patent US8791162B2, “Cathepsin cysteine protease inhibitors” (Merck Sharp & Dohme Corp., priority 2011, dated 2014).
